Consider 28 compounds from patent publication US7838674B2, “Tetracyclic lactame derivatives” (Novartis AG, priority 2007, dated 2010).

Structures can show the parent of a compound that is named as a salt. A value given as a limit tells only on which side of the number the result lay.

This test deals with T1, MAPKAPK2 enzyme (HIS-MK2, Invitrogen PV4019) (Homo sapiens, UniProt P49137).
T1 construct: His; purchased Invitrogen PV4019
T1 sequence (P49137 whole entry): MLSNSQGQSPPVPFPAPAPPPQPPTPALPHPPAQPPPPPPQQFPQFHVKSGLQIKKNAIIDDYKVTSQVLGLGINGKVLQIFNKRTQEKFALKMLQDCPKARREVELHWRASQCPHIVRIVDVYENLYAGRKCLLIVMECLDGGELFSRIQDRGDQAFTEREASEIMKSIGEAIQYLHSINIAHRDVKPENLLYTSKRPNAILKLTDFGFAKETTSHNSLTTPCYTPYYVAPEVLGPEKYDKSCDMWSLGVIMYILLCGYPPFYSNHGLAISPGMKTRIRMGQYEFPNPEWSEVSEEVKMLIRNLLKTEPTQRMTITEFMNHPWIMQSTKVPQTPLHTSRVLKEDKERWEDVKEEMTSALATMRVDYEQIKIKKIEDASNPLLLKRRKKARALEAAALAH
The test is described as follows: Alternative MAPKAPK2 assay (Caliper microfluidic mobility shift, HSP27-peptide). Type of test: biochemical. The settings on record: HIS-MK2 0.013 nM, ATP 10 μM, 60 min at 30° C.
A word on the IC50: it is the concentration that inhibits the measured activity by half. `CN1CC2(C1)c1[nH]c3c(c1C(=O)NC21CC1)CCc1cnc(-c2ccc(F)nc2)cc1-3` [Example 223, 2-[3-(1-Amino-cyclopropyl)-1-methyl-azetidin-3-yl]-8-(6-fluoro-pyridin-3-yl)-4,5-dihydro-1H-pyrrolo[2,3-f]isoquinoline-3-carboxylic acid lactam]: the IC50 is < 3 nM.

On to `CN1CC2(C1)c1[nH]c3c(c1C(=O)NC21CC1)CCc1cnc(-c2cccc(Cl)c2)cc1-3` [Example 224, 2-[3-(1-Amino-cyclopropyl)-1-methyl-azetidin-3-yl]-8-(3-chlorophenyl)-4,5-dihydro-1H-pyrrolo[2,3-f]isoquinoline-3-carboxylic acid lactam], for which the IC50 is < 3 nM.

Regarding `COc1ccc(-c2cc3c(cn2)CCc2c-3[nH]c3c2C(=O)NC2(CC2)C32CN(C)C2)cc1` [Example 225, 2-[3-(1-Amino-cyclopropyl)-1-methyl-azetidin-3-yl]-8-(4-methoxyphenyl)-4,5-dihydro-1H-pyrrolo[2,3-f]isoquinoline-3-carboxylic acid lactam], the IC50 is < 3 nM.

Turning to `CN1CC2(C1)c1[nH]c3c(c1C(=O)NC21CC1)CCc1cnc(-c2cccc(C(=O)NCc4ccccc4)c2)cc1-3` [Example 226, 2-[3-(1-Amino-cyclopropyl)-1-methyl-azetidin-3-yl]-8-(3-benzylcarbamoyl-phenyl)-4,5-dihydro-1H-pyrrolo[2,3-f]isoquinoline-3-carboxylic acid lactam], the IC50 was < 3 nM.

`CN1CC2(C1)c1[nH]c3c(c1C(=O)NC21CC1)CCc1cnc(-c2ccc(OCCN4CCOCC4)cc2)nc1-3` [Example 227, 2-[3-(1-Amino-cyclopropyl)-1-methyl-azetidin-3-yl]-8-[4-(2-morpholin-4-yl-ethoxy)-phenyl]-4,5-dihydro-1H-1,7,9-triaza-cyclopenta[a]naphthalene-3-carboxylic acid lactam]: the concentration for half-maximal inhibition (IC50) turned out to be 7 nM.

As to `O=C1NC2(CC2)C2(CC2)c2[nH]c3c(c21)CCc1cnc(-c2ccc(OCCN4CCOCC4)cc2)cc1-3` [Example 230, 2-(1′-Amino-bicyclopropyl-1-yl)-8-[4-(2-morpholin-4-yl-ethoxy)-phenyl]-4,5-dihydro-1H-pyrrolo[2,3-f]isoquinoline-3-carboxylic acid lactam], the IC50 amounted to 36 nM.

With `O=C1NC2(CCC2)Cc2[nH]c3c(c21)CCc1cnc(-c2ccc(OCCN4CCOCC4)cc2)cc1-3` [Example 231, 2-(1-Amino-cyclobutylmethyl)-8-[4-(2-morpholin-4-yl-ethoxy)-phenyl]-4,5-dihydro-1H-pyrrolo[2,3-f]isoquinoline-3-carboxylic acid lactam], the IC50 stood at 72 nM.

For the compound `CC(C)Oc1ccc(-c2cc3c(cn2)CCc2c-3[nH]c3c2C(=O)NC2(CC2)C3)cn1` [Example 235, 2-(1-Amino-cyclopropylmethyl)-8-(6-isopropoxy-pyridin-3-yl)-4,5-dihydro-1H-pyrrolo[2,3-f]isoquinoline-3-carboxylic acid lactam], the IC50 worked out at 65 nM.

With `O=C1NC2(CC2)Cc2[nH]c3c(c21)CCc1cnc(-c2ccc(N4CCOCC4)nc2)cc1-3` [Example 236, 2-(1-Amino-cyclopropylmethyl)-8-(6-morpholin-4-yl-pyridin-3-yl)-4,5-dihydro-1H-pyrrolo[2,3-f]isoquinoline-3-carboxylic acid lactam], the IC50 amounted to 22 nM.

Turning to `COc1ccc(-c2cc3c(cn2)CCc2c-3[nH]c3c2C(=O)NC2(CC2)C3)cc1F` [Example 238, 2-(1-Amino-cyclopropylmethyl)-8-(3-fluoro-4-methoxy-phenyl)-4,5-dihydro-1H-pyrrolo[2,3-f]isoquinoline-3-carboxylic acid lactam], the IC50 was 68 nM.

In the case of `O=C1NC2(CC2)Cc2[nH]c3c(c21)CCc1cnc(-c2ccc(CO)nc2)cc1-3` [Example 240, 2-(1-Amino-cyclopropylmethyl)-8-(6-hydroxymethyl-pyridin-3-yl)-4,5-dihydro-1H-pyrrolo[2,3-f]isoquinoline-3-carboxylic acid lactam], the IC50 was found to be 11 nM.

Consider `CC(=O)OCc1ccc(-c2cc3c(cn2)CCc2c-3[nH]c3c2C(=O)NC2(CC2)C3)cn1` [Example 244, 8-(6-Acetoxymethyl-pyridin-3-yl)-2-(1-amino-cyclopropylmethyl)-4,5-dihydro-1H-pyrrolo[2,3-f]isoquinoline-3-carboxylic acid lactam], for which the IC50 was 43 nM.

`O=C1NC2(CC2)Cc2[nH]c3c(c21)CCc1cnc(-c2ccc(CCCN4CCOCC4)cc2)cc1-3` [Example 246, 2-(1-Amino-cyclopropylmethyl)-8-[4-(3-morpholin-4-yl-propyl)-phenyl]-4,5-dihydro-1H-pyrrolo[2,3-f]isoquinoline-3-carboxylic acid lactam]: the IC50 was found to be 100 nM.

`O=C1NC2(CC2)Cc2[nH]c3c(c21)CCc1cnc(-c2ccc(CCCN4CC(O)C4)cc2)cc1-3` [Example 248, 2-(1-Amino-cyclopropylmethyl)-8-{4-[3-(3-hydroxy-azetidin-1-yl)-propyl]-phenyl}-4,5-dihydro-1H-pyrrolo[2,3-f]isoquinoline-3-carboxylic acid lactam]: the IC50 came out at 80 nM.

Turning to `CCN1CC2(C1)c1[nH]c3c(c1C(=O)NC21CC1)CCc1cnc(-c2ccc(OC(C)C)nc2)cc1-3` [Example 250], the IC50 is < 3 nM.

As for `CCN1CC2(C1)c1[nH]c3c(c1C(=O)NC21CC1)CCc1cnc(-c2ccc(OC)nc2)cc1-3` [Example 251, 2-[3-(1-Amino-cyclopropyl)-1-ethyl-azetidin-3-yl]-8-(6-methoxy-pyridin-3-yl)-4,5-dihydro-1H-pyrrolo[2,3-f]isoquinoline-3-carboxylic acid lactam], the IC50 was 3 nM.

With `CCN1CC2(C1)c1[nH]c3c(c1C(=O)NC21CC1)CCc1cnc(-c2cnc(OC)c(F)c2)cc1-3` [Example 252, 2-[3-(1-Amino-cyclopropyl)-1-ethyl-azetidin-3-yl]-8-(5-fluoro-6-methoxy-pyridin-3-yl)-4,5-dihydro-1H-pyrrolo[2,3-f]isoquinoline-3-carboxylic acid lactam], the IC50 came out at 8 nM.

As for `CCN1CC2(C1)c1[nH]c3c(c1C(=O)NC21CC1)CCc1cnc(-c2ccccc2F)cc1-3` [Example 253, 2-[3-(1-Amino-cyclopropyl)-1-ethyl-azetidin-3-yl]-8-(2-fluoro-phenyl)-4,5-dihydro-1H-pyrrolo[2,3-f]isoquinoline-3-carboxylic acid lactam], the IC50 was determined as 15 nM.

On to `CC(C)Oc1ccc(-c2cc3c(cn2)CCc2c-3[nH]c3c2C(=O)NC2(CC2)C32CN(C)C2)cn1` [Example 254, 2-[3-(1-Amino-cyclopropyl)-1-methyl-azetidin-3-yl]-8-(6-isopropoxy-pyridin-3-yl)-4,5-dihydro-1H-pyrrolo[2,3-f]isoquinoline-3-carboxylic acid lactam], for which the IC50 was < 3 nM.

Regarding `COc1ccc(-c2cc3c(cn2)CCc2c-3[nH]c3c2C(=O)NC2(CC2)C32CN(C)C2)cn1` [Example 255, 2-[3-(1-Amino-cyclopropyl)-1-methyl-azetidin-3-yl]-8-(6-methoxy-pyridin-3-yl)-4,5-dihydro-1H-pyrrolo[2,3-f]isoquinoline-3-carboxylic acid lactam], the IC50 is < 3 nM.

As to `CN1CC2(C1)c1[nH]c3c(c1C(=O)NC21CC1)CCc1cnc(-c2ccccc2F)cc1-3` [Example 256, 2-[3-(1-Amino-cyclopropyl)-1-methyl-azetidin-3-yl]-8-(2-fluoro-phenyl)-4,5-dihydro-1H-pyrrolo[2,3-f]isoquinoline-3-carboxylic acid lactam], the IC50 was < 3 nM.

As to `CN1CC2(C1)c1[nH]c3c(c1C(=O)NC21CC1)CCc1cnc(-c2ccc(OCCN4CCOCC4)cc2)cc1-3` [Example 259, 2-[3-(1-Amino-cyclopropyl)-1-methyl-azetidin-3-yl]-8-[4-(2-morpholin-4-yl-ethoxy)-phenyl]-4,5-dihydro-1H-pyrrolo[2,3-f]isoquinoline-3-carboxylic acid lactam], the IC50 was < 3 nM.

Take `CN1CC2(C1)c1[nH]c3c(c1C(=O)NC21CC1)CCc1cnc(-c2ccc(CCCN4CCOCC4)cc2)cc1-3` [Example 260, 2-[3-(1-Amino-cyclopropyl)-1-methyl-azetidin-3-yl]-8-[4-(3-morpholin-4-yl-propyl)-phenyl]-4,5-dihydro-1H-pyrrolo[2,3-f]isoquinoline-3-carboxylic acid lactam]: the IC50 is < 3 nM.

As to `O=C(NCc1ccccc1)c1cccc(-c2cc3c(cn2)CCc2c-3[nH]c3c2C(=O)NCC32CN(CC3CC3)C2)c1` [Example 261, 2-(3-Aminomethyl-1-cyclopropylmethyl-azetidin-3-yl)-8-(3-benzylcarbamoyl-phenyl)-4,5-dihydro-1H-pyrrolo[2,3-f]isoquinoline-3-carboxylic acid lactam], the IC50 came to 11 nM.

For the compound `CN1CC2(CNC(=O)c3c2[nH]c2c3CCc3cnc(-c4cccc(C(=O)NCc5ccccc5)c4)cc3-2)C1` [Example 262, 2-(3-Aminomethyl-1-methyl-azetidin-3-yl)-8-(3-benzylcarbamoyl-phenyl)-4,5-dihydro-1H-pyrrolo[2,3-f]isoquinoline-3-carboxylic acid lactam], the IC50 is < 3 nM.

As to `CCN1CC2(CNC(=O)c3c2[nH]c2c3CCc3cnc(-c4cccc(C(=O)NCc5ccccc5)c4)cc3-2)C1` [Example 263, 2-(3-Aminomethyl-1-ethyl-azetidin-3-yl)-8-(3-benzylcarbamoyl-phenyl)-4,5-dihydro-1H-pyrrolo[2,3-f]isoquinoline-3-carboxylic acid lactam], the IC50 was < 3 nM.

`O=C1NC2(CC2)Cc2[nH]c3c(c21)CCc1cnc(Oc2ccc(F)cc2F)nc1-3` [Example 266, 2-(1-Amino-cyclopropylmethyl)-8-(2,4-difluoro-phenoxy)-4,5-dihydro-1H-1,7,9-triaza-cyclopenta[a]naphthalene-3-carboxylic acid lactam]: the IC50 was > 10 nM.

Take `COc1ccc(-c2ncc3c(n2)-c2[nH]c4c(c2CC3)C(=O)NCC42CNC2)cc1F` [Example 268, 2-(3-Aminomethyl-azetidin-3-yl)-8-(3-fluoro-4-methoxy-phenyl)-4,5-dihydro-1H-1,7,9-triaza-cyclopenta[a]naphthalene-3-carboxylic acid lactan hydrochloride]: the IC50 was 8 nM.
